Source: patent US20220016277A1, “MACROCYCLIC COMPLEXES OF RADIONUCLIDES AND THEIR USE IN RADIOTHERAPY OF CANCER” (Cornell University, priority 2018, published 2022)

Test: Organ distribution of ^225Ac complexes following intravenous injection in mice
Assay type: in vivo, C57BL/6 mice
Protocol: In Vivo Biodistribution of ^225Ac Complexes of Macropa and DOTA. All experiments were approved by the Institutional Animal Care Committee (IACC) of the University of British Columbia and were performed in accordance with the Canadian Council on Animal Care Guidelines. A total of 9 female C57BL/6 mice (6-8 weeks old, 20-25 g) were used for the biodistribution study of each radiometal complex, n=3 for each time point.
Macropa (100 μL of a 1 mg/mL solution in NH4OAc) was diluted with 387 μL of NH4OAc (1 M, pH 7), and an aliquot (203 μL) of ^225Ac(NO3)3 (˜157 kBq) was then added; the pH of this solution was adjusted to 6.5-7 by the addition of 1 M NaOH (210 μL, trace metal grade). After 5 min at ambient temperature, the reaction solution was analyzed by TLC (0.4 M pH 4 sodium citrate as the eluent), which confirmed >95% radiochemical yield. The reaction was allowed to proceed overnight, and the radiochemical yield was again confirmed to be >95% the following morning. At this time, mice were anesthetized by 2% isoflurane, and approximately 100 μL (10-15 kBq) of the [^225Ac(macropa)]^+ complex were injected into the tail vein of each mouse. After injection, mice were allowed to recover and roam freely in their cages, and were euthanized by CO2 inhalation at 15 min, 1 h, or 5 h (n=3 at each time point) post-injection. Blood was collected by cardiac puncture and placed into an appropriate test tube for scintillation counting. Tissues collected included heart, liver, kidneys, lungs, small intestine, large intestine, brain, bladder, spleen, stomach, pancreas, bone, thyroid, tail, urine, and feces. Tissues were weighed and then counted with a calibrated gamma counter (Packard, Cobra II model 5002) using three energy windows: 60-120 keV (window A), 180-260 keV (window B), and 400-480 keV (window C). Counting was performed both immediately after sacrifice and after 7 days; counts were decay corrected from the time of injection and then converted to the percentage of injected dose (% ID) per gram of tissue (% ID/g). […]
The biodistribution studies of [^225Ac(DOTA)]^− and ^225Ac(NO3)3 were carried out as described above for [^225Ac(macropa)]^+, with the following modifications. [^225Ac(DOTA)^− was prepared by adding ^225Ac(NO3)3 (338 μL, 1.1 MBq) to a solution of DOTA (100 μg, 20 mg/mL in H2O) in NH4OAc (467 μL, 0.15 M, pH 7). The pH of the solution was adjusted to 7 using NH4OAc (150 μL, 1 M, pH 7) and the solution was heated at 85° C. for 45 min. RCY >99% was confirmed by TLC as described above. [^225Ac(DOTA)]^− was diluted with saline to a final concentration of 0.05 MBq/100 μL, and 100 μL were injected into each mouse. ^225Ac(NO3)3 (˜58 μL, 0.4 MBq) was diluted and injected in the same manner as [^225Ac(DOTA)]^−. One mouse that was to be euthanized at the 5 h time point in the [^225Ac(DOTA)]^− study died shortly after injection. In the same manner, one mouse that was to be euthanized at the 1 h time point in the ^225Ac(NO3)3 study died.
The in vivo stability [^225Ac(macropa)]^+ was examined by comparing its biodistribution to those of ^225Ac(NO3)3 and [^225Ac(DOTA)]^−. C57BL/6 mice were injected via tail vein with 10-50 kBq of each radiometal complex and were sacrificed after 15 min, 1 h, or 5 h. The amount of ^225Ac retained in each organ was quantified by gamma counting and reported as the percent of injected dose per gram of tissue (% ID/g). The results of these studies are compiled in Tables 1-3. Inadequate stability of an ^225Ac complex leading to the loss of radioisotope in vivo is manifested by the accumulation of ^225Ac in the liver, spleen, and bone of mice.^[11,12,32] […] The biodistribution profile of [^225Ac(macropa)]^+ (FIG. 3B) differs markedly from that of ^225Ac(NO3)3. […] Its biodistribution profile was similar to that of [^225Ac(DOTA)]^− (FIG. 3C), which has been previously shown to retain ^225Ac^3+ in vivo.^[7]

[1] = 15 min post i.v. injection, energy window A (60-120 keV)
[2] = 15 min post i.v. injection, energy window B (180-260 keV)
[3] = 15 min post i.v. injection, energy window C (400-480 keV)
[4] = 1 h post i.v. injection, energy window A (60-120 keV)
[5] = 1 h post i.v. injection, energy window B (180-260 keV)
[6] = 1 h post i.v. injection, energy window C (400-480 keV)
[7] = 5 h post i.v. injection, energy window A (60-120 keV)
[8] = 5 h post i.v. injection, energy window B (180-260 keV)

## O=C([O-])CN1CCN(CC(=O)[O-])CCN(CC(=O)[O-])CCN(CC(=O)[O-])CC1.[225Ac+3] [[^225Ac(DOTA)]^−]
[1]
  Organ distribution: bladder: 48.2703 % ID/g
  Organ distribution: blood: 5.2881 % ID/g
  Organ distribution: bone (femur + joint): 2.6298 % ID/g
  Organ distribution: brain: 0.2655 % ID/g
  Organ distribution: feces: 6.2730 % ID/g
  Organ distribution: heart: 2.3335 % ID/g
  Organ distribution: kidneys: 27.6566 % ID/g
  Organ distribution: large intestines: 2.3348 % ID/g
  Organ distribution: liver: 2.2520 % ID/g
  Organ distribution: lungs: 5.7556 % ID/g
  Organ distribution: pancreas: 1.5090 % ID/g
  Organ distribution: small intestines: 2.6370 % ID/g
  Organ distribution: spleen: 2.5905 % ID/g
  Organ distribution: stomach: 2.7440 % ID/g
  Organ distribution: tail: 8.8606 % ID/g
  Organ distribution: thyroids: −5.7725 % ID/g
  Organ distribution: urine: 1467.9186 % ID/g
[2]
  Organ distribution: bladder: 54.4696 % ID/g
  Organ distribution: blood: 5.6357 % ID/g
  Organ distribution: bone (femur + joint): 3.0357 % ID/g
  Organ distribution: brain: 0.2735 % ID/g
  Organ distribution: feces: 1.0222 % ID/g
  Organ distribution: heart: 2.7276 % ID/g
  Organ distribution: kidneys: 28.0858 % ID/g
  Organ distribution: large intestines: 2.5365 % ID/g
  Organ distribution: liver: 2.1817 % ID/g
  Organ distribution: lungs: 6.0147 % ID/g
  Organ distribution: pancreas: 1.4929 % ID/g
  Organ distribution: small intestines: 2.5009 % ID/g
  Organ distribution: spleen: 2.9076 % ID/g
  Organ distribution: stomach: 2.7311 % ID/g
  Organ distribution: tail: 9.4746 % ID/g
  Organ distribution: thyroids: 1.6601 % ID/g
  Organ distribution: urine: 1635.4394 % ID/g
[3]
  Organ distribution: bladder: 76.0987 % ID/g
  Organ distribution: blood: 7.2941 % ID/g
  Organ distribution: bone (femur + joint): 4.4224 % ID/g
  Organ distribution: brain: 0.1588 % ID/g
  Organ distribution: feces: 1.5693 % ID/g
  Organ distribution: heart: 2.5579 % ID/g
  Organ distribution: kidneys: 40.4489 % ID/g
  Organ distribution: large intestines: 3.8419 % ID/g
  Organ distribution: liver: 2.9046 % ID/g
  Organ distribution: lungs: 7.3872 % ID/g
  Organ distribution: pancreas: 1.0290 % ID/g
  Organ distribution: small intestines: 3.8916 % ID/g
  Organ distribution: spleen: 1.5598 % ID/g
  Organ distribution: stomach: 3.2425 % ID/g
  Organ distribution: tail: 13.4731 % ID/g
  Organ distribution: thyroids: −109.5394 % ID/g
  Organ distribution: urine: 2691.0615 % ID/g
[4]
  Organ distribution: bladder: 4.7351 % ID/g
  Organ distribution: blood: 0.1144 % ID/g
  Organ distribution: bone (femur + joint): 0.4487 % ID/g
  Organ distribution: brain: 0.0224 % ID/g
  Organ distribution: feces: 0.2035 % ID/g
  Organ distribution: heart: 0.1012 % ID/g
  Organ distribution: kidneys: 1.4020 % ID/g
  Organ distribution: large intestines: 0.1229 % ID/g
  Organ distribution: liver: 0.2715 % ID/g
  Organ distribution: lungs: 0.1555 % ID/g
  Organ distribution: pancreas: 0.0743 % ID/g
  Organ distribution: small intestines: 1.7207 % ID/g
  Organ distribution: spleen: 0.0938 % ID/g
  Organ distribution: stomach: 0.1367 % ID/g
  Organ distribution: tail: 0.8091 % ID/g
  Organ distribution: thyroids: 2.3564 % ID/g
  Organ distribution: urine: 158.6102 % ID/g
[5]
  Organ distribution: bladder: 4.7141 % ID/g
  Organ distribution: blood: 0.1127 % ID/g
  Organ distribution: bone (femur + joint): 0.4126 % ID/g
  Organ distribution: brain: 0.0248 % ID/g
  Organ distribution: feces: 0.2349 % ID/g
  Organ distribution: heart: 0.1378 % ID/g
  Organ distribution: kidneys: 1.2560 % ID/g
  Organ distribution: large intestines: 0.0813 % ID/g
  Organ distribution: liver: 0.2672 % ID/g
  Organ distribution: lungs: 0.1946 % ID/g
  Organ distribution: pancreas: 0.0746 % ID/g
  Organ distribution: small intestines: 1.8809 % ID/g
  Organ distribution: spleen: 0.0825 % ID/g
  Organ distribution: stomach: 0.1379 % ID/g
  Organ distribution: tail: 0.8973 % ID/g
  Organ distribution: thyroids: 2.6514 % ID/g
  Organ distribution: urine: 159.1628 % ID/g
[6]
  Organ distribution: bladder: 6.9149 % ID/g
  Organ distribution: blood: 0.1102 % ID/g
  Organ distribution: bone (femur + joint): 0.5654 % ID/g
  Organ distribution: brain: 0.0380 % ID/g
  Organ distribution: feces: 0.4091 % ID/g
  Organ distribution: heart: 0.2857 % ID/g
  Organ distribution: kidneys: 1.4787 % ID/g
  Organ distribution: large intestines: 0.1381 % ID/g
  Organ distribution: liver: 0.2841 % ID/g
  Organ distribution: lungs: 0.2551 % ID/g
  Organ distribution: pancreas: 0.1730 % ID/g
  Organ distribution: small intestines: 2.0201 % ID/g
  Organ distribution: spleen: 0.2228 % ID/g
  Organ distribution: stomach: 0.1720 % ID/g
  Organ distribution: tail: 1.0280 % ID/g
  Organ distribution: thyroids: 3.5247 % ID/g
  Organ distribution: urine: 177.6788 % ID/g
[7]
  Organ distribution: bladder: 0.3551 % ID/g
  Organ distribution: blood: 0.0140 % ID/g
  Organ distribution: bone (femur + joint): 0.2063 % ID/g
  Organ distribution: brain: 0.0213 % ID/g
  Organ distribution: feces: 5.5318 % ID/g
  Organ distribution: heart: 0.0664 % ID/g
  Organ distribution: kidneys: 0.6172 % ID/g
  Organ distribution: large intestines: 0.2026 % ID/g
  Organ distribution: liver: 0.1010 % ID/g
  Organ distribution: lungs: 0.0390 % ID/g
  Organ distribution: pancreas: 0.0677 % ID/g
  Organ distribution: small intestines: 0.0967 % ID/g
  Organ distribution: spleen: 0.1380 % ID/g
  Organ distribution: stomach: 0.0852 % ID/g
  Organ distribution: tail: 0.3057 % ID/g
  Organ distribution: thyroids: 3.6425 % ID/g
  Organ distribution: urine: 1.1612 % ID/g
[8]
  Organ distribution: bladder: 0.7521 % ID/g
  Organ distribution: blood: 0.0292 % ID/g
  Organ distribution: bone (femur + joint): 0.1478 % ID/g
  Organ distribution: brain: 0.0513 % ID/g
  Organ distribution: feces: 3.3534 % ID/g
  Organ distribution: heart: 0.0879 % ID/g
  Organ distribution: kidneys: 0.6718 % ID/g
  Organ distribution: large intestines: 0.2527 % ID/g
  Organ distribution: liver: 0.2712 % ID/g
  Organ distribution: lungs: 0.1289 % ID/g
  Organ distribution: pancreas: 0.1266 % ID/g
  Organ distribution: small intestines: 0.2065 % ID/g
  Organ distribution: spleen: 0.0834 % ID/g
  Organ distribution: stomach: 0.1789 % ID/g
  Organ distribution: tail: 0.1634 % ID/g
  Organ distribution: thyroids: 16.2357 % ID/g
  Organ distribution: urine: 3.6967 % ID/g
